Source: paper PMC4226669, “Anti-cancer potency of tasquinimod is enhanced via albumin-binding facilitating increased uptake in the tumor microenvironment” (Oncotarget, 2014)

Experiments:
[1] = biological target: human serum albumin (HSA) (Homo sapiens, UniProt P02768); assay: Reversibility of albumin binding (dialysis against drug free HSA); details: after 4 hours of dialysis, pH 7.4
Experimental: In additional studies, 200 μg (i.e., 3nmol) of human serum albumin (HSA) was incubated with 400 pmoles of ^14C-labeled tasquinimod at pH 7.4 so that 50% of the drug is protein bound. This solution was then placed in a dialysis chamber opposite an equal volume of a solution containing 8 mg (i.e., 120 nmoles) of drug free HSA at pH 7.4 separated by a membrane which is permeable to unbound free tasquinimod, but impermeable to albumin. The 8 mg of HSA in the initial drug free side was chosen because this amount of albumin can bind 98% of the drug when exposed to 400 pmoles of tasquinimod.

[2] = Drug binding in 10% FBS supplemented media; type: in vitro ADME, bovine; details: 1 μM in 10% FBS supplemented media
Source text: Since tasquinimod binds to both S100A9 and HDAC4 proteins with high affinities and since S100A9 has both an extracellular and intracellular location while HDAC4 in prostate cancer cells is in the cell nucleus, it is important to evaluate whether tasquinimod is capable of entering cells or whether it only associates with extracellular plasma membrane components. To resolve this question, an in vitro approach was taken using three human prostate cancer cells (i.e., CWR-22Rv1, LAPC-4, and LNCaP) and human umbilical vein endothelial (HUVEC) cells. When 1 μM tasquinimod is added to 10% fetal bovine serum (FBS) supplemented media, there is sufficient albumin to bind 80% of the drug so that the protein-free concentration of tasquinimod in such media is only 0.2 μM. Preliminary studies documented that even after 48 hours of exposure of HUVEC and each of the 3 prostate cancer cell lines to 1 μM at confluent cell density, there was < 15% metabolism of the parental tasquinimod drug with the major metabolite being the O-demethylated quinoline compound.

[3] = tested on: human umbilical vein endothelial cells (HUVECs); assay: 3D in vitro endothelial sprouting and tube formation assay; type: cell-based
Source text: A three-dimensional (3D) in vitro endothelial sprouting and tube formation assay was utilized to define the anti-angiogenic potency of tasquinimod vs. these metabolites. In this 3D assay, human umbilical endothelial cells (i.e., HUVECs) are initially grown on microcarrier beads and the cell coated beads embedded in fibrin gels with media conditioned by normal human lung fibroblasts. Under these 3D-conditions, endothelial cells “sprout” producing 3D neovessel tubes with patent lumen within one week, Figure 4A - left panel. When tasquinimod is added at the initiation to these 3D-cultures, sprouting of the endothelial cells is inhibited, Figure 4B-right panel, with the potency for such inhibition, expressed as an IC50 value (i.e., the concentration of drug which inhibits by 50% the endothelial sprouting) of 0.5 μM, Figure 4C. […] Using this 3D-HUVEC assay, the potency (i.e., expressed as IC50) of tasquinimod metabolites to inhibit endothelial sprouting was compared to tasquinimod. […] To further confirm that tasquinimod itself and not the carboxamide-N-demethylated metabolite is the active drug, the response to ketoconazole alone and in combination with tasquinimod was tested in the 3D-endothelial sprouting assay.
The 3-dimensional (3D) in vitro angiogenic sprouting and tube formation assay was used as described previously. This 3D-endothelial sprouting assay was conducted using a minimum of 5 replicate wells per drug dose per experiment, repeated 3 independent times using human umbilical vein endothelial cells (HUVECs; Lonza Walkersville, Inc.) with modification that 20 μL of 10X concentrated Dulbecco's Modified Eagle's Media/10%FCS media conditioned by confluent human primary lung fibroblasts (Lonza) diluted to 200 μL of growth factor supplemented EGM-2 media (Lonza) was used instead of fibroblast co-culture.

human albumin = biological target: T1, human albumin (Homo sapiens, UniProt P02768); assay: Equilibrium dialysis binding to human albumin; details: pH 7.4, equilibrium dialysis, read-out: equilibrium dissociation constant (Kd)
T1 construct: purchased Sigma
Experimental: To determine whether albumin is the tasquinimod binding protein in plasma, albumin was removed from human plasma using an albumin depletion kit (Thermo Scientific cat # 85160). The albumin depleted plasma was then tested for its protein binding as described above. The dissociation constant (kd) for tasquinimod binding was determined based upon equilibrium dialysis of a mixture of 4mg/ml of the species (i.e., human, bovine, and mouse) specific albumin obtained from Sigma with 2μM of ^14C-labeled tasquinimod in PBS pH 7.4 buffer using a 96-well equilibrium dialyzer™ (Harvard Apparatus, Holliston,MA).

T1 sequence (P02768 25-609): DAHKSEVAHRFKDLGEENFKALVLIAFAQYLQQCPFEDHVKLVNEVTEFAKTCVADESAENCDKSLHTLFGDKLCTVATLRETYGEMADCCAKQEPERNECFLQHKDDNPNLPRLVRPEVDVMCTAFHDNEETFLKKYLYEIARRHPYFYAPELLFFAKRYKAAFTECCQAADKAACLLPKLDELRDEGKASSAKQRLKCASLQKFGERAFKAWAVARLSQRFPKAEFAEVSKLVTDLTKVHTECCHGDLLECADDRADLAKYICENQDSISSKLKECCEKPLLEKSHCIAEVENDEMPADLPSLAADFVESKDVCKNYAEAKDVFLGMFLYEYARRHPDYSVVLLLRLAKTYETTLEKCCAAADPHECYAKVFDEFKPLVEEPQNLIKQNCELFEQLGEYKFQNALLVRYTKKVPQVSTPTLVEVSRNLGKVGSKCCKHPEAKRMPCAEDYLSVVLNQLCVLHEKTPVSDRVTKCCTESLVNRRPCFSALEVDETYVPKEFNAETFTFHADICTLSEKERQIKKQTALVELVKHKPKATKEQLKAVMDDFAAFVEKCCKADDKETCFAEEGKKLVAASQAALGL
Sequence of human serum albumin (HSA) (P02768 25-609): as above

initial protein bound tasquinimod released [1]: 65 ± 9% | drug bound by albumin in media [2]: 80% | protein-free concentration in media [2]: 0.2 µM | Kd (human albumin): 24 ± 4 µM
SMILES: COc1cccc2c1c(O)c(C(=O)N(C)c1ccc(C(F)(F)F)cc1)c(=O)n2C [Tasquinimod]
sprouting of HUVEC cells in 3-D culture ([3]; 1μM, 5 days co-treatment with conditioned media from fibroblasts): Lack of sprouting | IC50 ([3]; Homo sapiens, HUVEC, 3D-HUVEC sprouting assay, read-out: IC50 (concentration of drug which inhibits by 50% the endothelial sprouting)): ~0.5 µM
